Experimental data taken from patent publication EP0184291B1, “Polyether antibiotic A80190” (ELI LILLY AND COMPANY, priority 1984, dated 1986).
Values after ≈ are worked out from the molar mass of the structure shown.

Experiments:
[1] = test system: Clostridium perfringens 81; assay: microbe, parasite or virus in culture; format: cell-based; settings: Clostridium perfringens, 81, 24 h
Solubility = format: physicochemical
[2] = Ion-transport (ionophore) test
adult housefly = assay: Insecticidal activity; format: in vivo; settings: Musca domestica; read-out: active at levels as low as
Excerpt: (§1) The A80190 compounds are also useful as insecticides and acaricides. For example, A80190 is active against the following insects as levels as low as the level indicated in parenthesis: mosquito larvae (<50 ppm), blowfly larvae (35 ppm), adult housefly (35 ppm), and Mexican bean beetle and southern armyworm (<100 ppm). A80190 is also active against mites such as two-spotted spider mite when applied at a rate as low as 25 ppm.

Mexican bean beetle = assay: Insecticidal activity; format: in vivo; settings: Epilachna varivestis; read-out: active at levels as low as
Excerpt: as §1

mosquito larvae = assay: Insecticidal activity; format: in vivo; settings: read-out: active at levels as low as
Excerpt: as §1

[3] = test system: Eimeria acervulina (Lilly strain 59), Eimeria maxima (strain FS-177) and Eimeria tenella (strain FS-155); assay: Coccidiosis test in broiler chicks, A80190 with nicarbazin (Test 1); format: in vivo; settings: Nicarbazin 0 p.p.m. in ration
[4] = test system: Bacteroides thetaiotaomicron 1438; assay: Agar-dilution assay, anaerobic bacteria; format: cell-based; settings: 24-hour incubation
Protocol: (§2) One important aspect of the antimicrobial activity of A80190 compounds relates to their activity against anaerobic bacteria. The minimal inhibitory concentrations (MIC's) at which A80190 inhibits various anaerobic bacteria, as determined by standard agar-dilution assay, are summarized in Table VII. End points were read after 24-hour incubation.

Bacteroides fragilis 111 = assay: Agar-dilution assay, anaerobic bacteria; format: cell-based; settings: 24-hour incubation
Protocol: as §2

[5] = test system: Peptococcus asaccharolyticus 1302; assay: Agar-dilution assay, anaerobic bacteria; format: cell-based; settings: Peptoniphilus asaccharolyticus, 24-hour incubation
Protocol: as §2

[6] = test system: Peptostreptococcus intermedius 1624; assay: Agar-dilution assay, anaerobic bacteria; format: cell-based; settings: 24-hour incubation
Protocol: as §2

[7] = test system: Bacteroides fragilis 1936B; assay: Agar-dilution assay, anaerobic bacteria; format: cell-based; settings: 24-hour incubation
Protocol: as §2

[8] = test system: Bacteroides melaninogenicus 1856/28; assay: Agar-dilution assay, anaerobic bacteria; format: cell-based; settings: Prevotella intermedia, 24-hour incubation
Protocol: as §2

[9] = test system: Eubacterium aerofaciens 1235; assay: Agar-dilution assay, anaerobic bacteria; format: cell-based; settings: Collinsella aerofaciens, 24-hour incubation
Protocol: as §2

[10] = test system: Propionibacterium acnes 79; assay: Agar-dilution assay, anaerobic bacteria; format: cell-based; settings: Cutibacterium acnes, 24-hour incubation
Protocol: as §2

[11] = test system: Clostridium septicum 1128; assay: Agar-dilution assay, anaerobic bacteria; format: cell-based; settings: 24-hour incubation
Protocol: as §2

[12] = test system: Bacteroides vulgatis 1211; assay: Agar-dilution assay, anaerobic bacteria; format: cell-based; settings: 24-hour incubation
Protocol: as §2

[13] = test system: Clostridium difficile 2994; assay: Agar-dilution assay, anaerobic bacteria; format: cell-based; settings: Clostridioides difficile, 24-hour incubation
Protocol: as §2

[14] = test system: Bacteroides melaninogenicus 2736; assay: Agar-dilution assay, anaerobic bacteria; format: cell-based; settings: 24-hour incubation
Protocol: as §2

[15] = test system: Fusobacterium symbiosum 1470; assay: Agar-dilution assay, anaerobic bacteria; format: cell-based; settings: 24-hour incubation
Protocol: as §2

Petococcus prevoti 1281 = assay: Agar-dilution assay, anaerobic bacteria; format: cell-based; settings: 24-hour incubation
Protocol: as §2

[16] = test system: Bacteroides corrodens 1874; assay: Agar-dilution assay, anaerobic bacteria; format: cell-based; settings: Eikenella corrodens, 24-hour incubation
Protocol: as §2

[17] = test system: Peptostreptococcus anaerobius 1428; assay: Agar-dilution assay, anaerobic bacteria; format: cell-based; settings: 24-hour incubation
Protocol: as §2

[18] = test system: Fusobacterium necrophorum 6054A; assay: Agar-dilution assay, anaerobic bacteria; format: cell-based; settings: 24-hour incubation
Protocol: as §2

[19] = test system: Bacteroides fragilis 1877; assay: Agar-dilution assay, anaerobic bacteria; format: cell-based; settings: 24-hour incubation
Protocol: as §2

two-spotted spider mite = assay: Acaricidal activity; format: in vivo; settings: Tetranychus urticae; read-out: active when applied at a rate as low as
Excerpt: as §1

Treponema hyodysenteriae = assay: Growth inhibition, swine dysentery agent; format: cell-based; settings: Brachyspira hyodysenteriae; read-out: inhibits the growth at levels as low as
Excerpt: In another aspect the A80190 compounds are useful in the treatment of swine dysentery. A80190 inhibits the growth of Treponema hyodysenteriae, a causative agent of swine dysentery, at levels as low as 0.39 mcg/ml. A preferred method of administration to swine is by incorporation of an appropriate amount of an A80190 compound into the feed ration or drinking water. An appropriate amount will relate to whether the treatment is to prevent or to cure infection. Usually, a lower concentration of active compound is needed to prevent infection than is required for to eliminate infection in animals already afflicted. In general, amounts in the range of from about 20 to about 100 grams of A80190 compound per ton of feed are effective to prevent infection. Amounts in the range of from about 100 to about 500 g of A80190 compound per ton of feed are recommended for treating swine suffering from dysentery. These amounts provide from about 1 to about 5 mg/kg of body weight per day (prophylactic treatment) or from about 5 to about 25 mg/kg of body weight per day (treatment of infected animal). When added to the drinking water, amounts of from about 0.04 to about 0.2 g (prophylactic) or from about 0.2 to about 1 g (therapeutic) of A80190 compound per gallon of water are recommended.

pKa determination = format: physicochemical; settings: 66% aqueous dimethylformamide; free acid form
Excerpt: Antibiotic A80190 has been assigned structure 1 based on X-ray crystallographic studies.

Caenorhabditis elegans = assay: Anthelmintic activity; format: in vivo; settings: read-out: active at levels as low as
Excerpt: The A80190 compounds are also anthelmintic agents. For example, A80190 is active against Caenorhabditis elegans at levels as low as 20 ppm.

**Q.** What does the source list for `CC[C@@H](O)[C@]1(C)C[C@H](C)[C@@](O)([C@H]2C[C@H](C)[C@H]([C@]3(C)C[C@@H](O[C@H]4CC[C@H](OC)[C@@H](C)O4)[C@H]([C@@H]4CC[C@@]5(O[C@H]([C@@H](C)[C@@H](OC)[C@H](C)C(=O)O)[C@H](C)[C@@H](OC)[C@H]5C)O4)O3)O2)O1` [Example A80190]?
**A.** MIC [1]: < 0.5 µg/mL; Solubility (Solubility; lower alcohols such as methanol, ketones such as acetone, esters such as ethyl acetate, halogenated hydrocarbons such as chloroform, diethyl ether, benzene, toluene, warm hexane): soluble; Solubility (Solubility; water): Insoluble; ionophorous effect, comparison of cations ([2]; 0.2 µg/ml concentration): even greater ionophorous effect with Cs⁺ than with Na⁺; ionophorous activity ([2]; 0.5 µg/ml concentration): showed ionophorous activity; ionophorous activity, comparison of cations ([2]; 0.5 µg/ml concentration): its activity with Na⁺, K⁺ and Rb⁺ was better than that with Cs⁺ or Li⁺; minimal effective concentration (adult housefly): 35 µg/mL; minimal effective concentration (Mexican bean beetle): < 100 µg/mL; minimal effective concentration (mosquito larvae): < 50 µg/mL; CECAL LESION SCORES ([3]; A80190 4 p.p.m.): 2.63; INTESTINAL LESION SCORES ([3]; A80190 4 p.p.m.): 8.63; WEIGHT GAIN ([3]; A80190 4 p.p.m.): 236 grams/per chicken; CECAL LESION SCORES ([3]; A80190 8 p.p.m.): 1.75; INTESTINAL LESION SCORES ([3]; A80190 8 p.p.m.): 5.94; WEIGHT GAIN ([3]; A80190 8 p.p.m.): 265 grams/per chicken; CECAL LESION SCORES ([3]; A80190 12 p.p.m.): 1.19; INTESTINAL LESION SCORES ([3]; A80190 12 p.p.m.): 3.50; WEIGHT GAIN ([3]; A80190 12 p.p.m.): 251 grams/per chicken; CECAL LESION SCORES ([3]; A80190 16 p.p.m.): 0.19; INTESTINAL LESION SCORES ([3]; A80190 16 p.p.m.): 1.19; WEIGHT GAIN ([3]; A80190 16 p.p.m.): 272 grams/per chicken; CECAL LESION SCORES ([3]; A80190 20 p.p.m.): 0.0; INTESTINAL LESION SCORES ([3]; A80190 20 p.p.m.): 0.0; WEIGHT GAIN ([3]; A80190 20 p.p.m.): 261 grams/per chicken; MIC [4]: > 128 µg/mL; MIC (Bacteroides fragilis 111): > 128 µg/mL; MIC [5]: 1 µg/mL (≈ 1.21 µM); MIC [6]: 1 µg/mL (≈ 1.21 µM); MIC [7]: > 128 µg/mL; MIC [8]: > 128 µg/mL; MIC [9]: < 0.5 µg/mL; MIC [10]: 1 µg/mL (≈ 1.21 µM); MIC [11]: < 0.5 µg/mL; MIC [12]: 16 µg/mL (≈ 19.3 µM); MIC [13]: < 0.5 µg/mL; MIC [14]: > 128 µg/mL; MIC [15]: 8 µg/mL (≈ 9.65 µM); MIC (Petococcus prevoti 1281): < 0.5 µg/mL; MIC [16]: > 128 µg/mL; MIC [17]: 1 µg/mL (≈ 1.21 µM); MIC [18]: 16 µg/mL (≈ 19.3 µM); MIC [19]: > 128 µg/mL; minimal effective concentration (two-spotted spider mite): 25 µg/mL; MIC (Treponema hyodysenteriae): 0.39 µg/mL (≈ 0.47 µM); pKa (pKa determination): 6.2; minimal effective concentration (Caenorhabditis elegans): 20 µg/mL
